Laboratory results published in patent EP4790066A1, “GLP-1R/GIPR/GCGR TRIPLE AGONIST ANALOGUE AND USE THEREOF” (Shenzhen Bay Laboratory, priority 2023, dated 2025).

Experiments:
[1] = biological target: T1, GLP-1R (Homo sapiens, UniProt P43220); experiment: CreLuc method (CRE-luciferase reporter), HEK293/pGM-CREB-L-Luc/GLP-1R pool; type: cell-based; conditions: 6 h incubation, read-out: EC50 (pM) for each receptor GLP-1R
T1 construct: expressed in transfected cells
Outline: (§1)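 Stable HEK293 pools co-expressing each receptor with a CRE-luciferase reporter were plated at 20,000 cells/well in freestyle medium and treated with compound dilution series for 6 h at 37 °C. Luminescence was read with ONE-GLO to derive EC50.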

[2] = biological target: T2, GIPR (Homo sapiens, UniProt P48546); experiment: cAMP method (HTRF cAMP detection kit), HEK293/pGM-CREB-L-Luc/GIP pool; type: cell-based; conditions: read-out: EC50 (pM) for each receptor GIPR
T2 construct: expressed in transfected cells
T2 sequence (P48546 22-466): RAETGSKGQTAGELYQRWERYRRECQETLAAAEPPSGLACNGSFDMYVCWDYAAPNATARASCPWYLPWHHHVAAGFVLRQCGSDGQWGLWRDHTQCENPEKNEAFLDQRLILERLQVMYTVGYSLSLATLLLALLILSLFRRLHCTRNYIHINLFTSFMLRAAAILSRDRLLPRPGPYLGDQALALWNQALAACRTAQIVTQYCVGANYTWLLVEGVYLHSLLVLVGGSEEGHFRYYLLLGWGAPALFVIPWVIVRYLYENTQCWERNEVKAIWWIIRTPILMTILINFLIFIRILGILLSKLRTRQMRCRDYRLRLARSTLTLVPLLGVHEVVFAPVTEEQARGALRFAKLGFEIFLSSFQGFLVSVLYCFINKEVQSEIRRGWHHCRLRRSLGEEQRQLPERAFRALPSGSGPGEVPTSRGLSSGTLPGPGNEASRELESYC
Procedure: (§2) 2. Insulinotropic analogues can bind to target receptors on the cell membrane, activate the receptors, and induce release. The activity of the test substance can be determined using the HTRF method with a cAMP detection kit. Therefore, the cAMP method can be used to detect the target peptide derivatives (or polypeptide derivatives, i.e., TG1-TG86) prepared in Example 1 and Example 2. […] The test cell line was selected, treated with cAMP-specific trypsin for digestion. 3 mL of serum-free DMEM culture medium was added, and the cells were pipetted, resuspended, and counted. 5 µL of IBMX (prepared with serum-free DMEM medium, 0.5 mM) and test cells (5 µL/7500 cells/well) were added in a 384-well plate sequentially. The plate was incubated at 37°C under 5% CO2 for 30 min, followed by the addition of cAMP-d2 (5 µL, 1x) and Anti-cAMP-Cryptate (5 µL, 1x). The mixture was kept at room temperature for 1 h, after which the HTRF value was measured using a chemiluminescent microplate reader, and the determination result was recorded. […] Table 4: EC50 values for target peptide derivatives

[3] = biological target: T3, GCGR (Homo sapiens, UniProt P47871); experiment: CreLuc method (CRE-luciferase reporter), 293HEK/pGM-CREB-L-Luc/GCGR pool; type: cell-based; conditions: 6 h incubation, read-out: EC50 (pM) for each receptor GCGR
T3 construct: expressed in transfected cells
Outline: as §1

[4] = biological target: T3, GCGR; experiment: cAMP method (HTRF cAMP detection kit), HEK293/pGM-CREB-L-Luc/GCG pool; type: cell-based; conditions: read-out: EC50 (pM) for each receptor GCGR
Procedure: as §2

[5] = biological target: T2, GIPR; experiment: CreLuc method (CRE-luciferase reporter), HEK293/pGM-CREB-L-Luc/GIPR pool; type: cell-based; conditions: 6 h incubation, read-out: EC50 (pM) for each receptor GIPR
Outline: as §1

[6] = in vivo; set-up: species or system male SD rats; conditions: rat
Procedure: The pharmacokinetic behavior of target peptide derivatives (or polypeptide derivatives) prepared in Example 1 and Example 2, i.e., TG1-TG94 in rodents was tested. The specific steps are as follows:
The target peptide derivatives (TG1-TG94) to be tested were administered to male SD rats via subcutaneous injection (SC, 3 mg/kg; drug vehicle: PBS, concentration: 1.5 mg/mL; administration volume: 2 mL) and intravenous injection (IV, 1 mg/kg; drug vehicle: PBS, concentration: 0.5 mg/mL; administration volume: 2 mL) as a single dose, respectively. Whole blood samples were collected from the jugular vein or other appropriate vein at the following time points after administration: for SC, 15 min, 30 min, 1 h, 2 h, 4 h, 6 h, 8 h, 24 h, 48 h, 72 h, 96 h, 120 h, and 168 h; for IV, 5 min, 15 min, 30 min, 1 h, 2 h, 4 h, 8 h, 24 h, 48 h, 72 h, 96 h, 120 h, and 168 h. 0.2 mL of blood was collected and transferred into a labeled EDTA-K2 anticoagulant tube. The tube was gently inverted to ensure thorough mixing of the anticoagulant (EDTA-K2) with the blood and immediately placed on wet ice. Plasma separation was performed as soon as possible by centrifugation under the following conditions: 4°C, 6800xg, for 6 min. The plasma samples were stored in a refrigerator at no higher than -20°C and used for analysis when needed.
Under the condition of yellow light in an ice-water bath, except for blank samples, 300 µL of precipitant containing an internal standard was added to a 96-well plate containing 20 µL of standard curve sample, quality control sample, or unknown sample; 300 µL of acetonitrile was added to the blank sample. The mixture was vortexed, mixed well, and then centrifuged. 150 µL of the supernatant after centrifugation was transferred to a new 96-well plate, and 150 µL of ultrapure water was added and mixed well. The above samples were subjected to quantitative analysis using LC-MS analysis with XB-C18 (2.1 * 100 mm, 3 µm) chromatography for gradient elution. The mobile phases used were: mobile phase A = 0.1% formic acid-water; mobile phase B = acetonitrile. Phoenix WinNonlin software was used to calculate the pharmacokinetic parameters. […] Table 5A: Pharmacokinetic parameters of target peptide derivatives

[7] = biological target: T1, GLP-1R; experiment: cAMP method (HTRF cAMP detection kit), HEK293/pGM-CREB-L-Luc/GLP-1 pool; type: cell-based; conditions: read-out: EC50 (pM) for each receptor GLP-1R
Procedure: as §2

T3 sequence (P47871 26-477, species assumed): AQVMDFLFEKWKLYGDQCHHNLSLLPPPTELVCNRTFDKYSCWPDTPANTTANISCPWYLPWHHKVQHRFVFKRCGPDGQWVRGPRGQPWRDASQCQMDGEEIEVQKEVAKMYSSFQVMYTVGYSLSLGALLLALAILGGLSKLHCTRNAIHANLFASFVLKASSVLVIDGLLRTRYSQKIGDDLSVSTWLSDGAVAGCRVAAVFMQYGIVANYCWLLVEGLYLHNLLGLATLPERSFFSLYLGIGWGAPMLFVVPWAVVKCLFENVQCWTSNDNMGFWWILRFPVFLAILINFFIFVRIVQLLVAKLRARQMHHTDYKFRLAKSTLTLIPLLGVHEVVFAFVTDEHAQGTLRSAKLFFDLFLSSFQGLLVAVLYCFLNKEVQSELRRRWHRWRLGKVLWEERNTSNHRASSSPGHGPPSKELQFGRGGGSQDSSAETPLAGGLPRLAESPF
T1 sequence (P43220 24-463, species assumed): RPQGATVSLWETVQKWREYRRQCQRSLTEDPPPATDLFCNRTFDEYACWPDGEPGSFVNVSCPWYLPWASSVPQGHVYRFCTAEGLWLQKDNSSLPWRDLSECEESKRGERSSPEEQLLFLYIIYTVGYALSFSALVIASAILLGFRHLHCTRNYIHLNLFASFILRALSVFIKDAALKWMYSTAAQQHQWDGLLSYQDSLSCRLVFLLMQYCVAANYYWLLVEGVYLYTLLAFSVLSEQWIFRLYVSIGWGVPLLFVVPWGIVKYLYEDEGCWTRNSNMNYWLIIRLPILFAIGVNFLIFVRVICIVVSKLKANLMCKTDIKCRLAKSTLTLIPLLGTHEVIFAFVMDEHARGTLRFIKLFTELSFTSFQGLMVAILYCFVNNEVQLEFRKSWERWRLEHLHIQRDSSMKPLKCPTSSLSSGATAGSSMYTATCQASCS

Row | SMILES | EC50 [1] | EC50 [2] | EC50 [3] | EC50 [4] | EC50 [5] | EC50 [7] | other results
1 | CC[C@H](C)[C@@H]1NC(=O)[C@H](Cc2ccccc2)NC(=O)[C@@H](NC(=O)C(C)(C)NC(=O)[C@H](CCC(N)=O)NC(=O)[C@H](C)NC(=O)[C@H](CCCCNC(C)=O)NC(=O)[C@H](CCCCN)NC(=O)[C@H](CC(=O)O)NC(=O)[C@H](CC(C)C)NC(=O)[C@](C)(CC(C)C)NC(=O)[C@@H](NC(=O)[C@H](CO)NC(=O)[C@H](Cc2ccc(O)cc2)NC(=O)[C@H](CC(=O)O)NC(=O)[C@H](CO)NC(=O)[C@@H](NC(=O)[C@H](Cc2ccccc2F)NC(=O)[C@@H](NC(=O)CNC(=O)[C@H](CCC(N)=O)NC(=O)C(C)(C)NC(=O)[C@@H](N)Cc2ccc(O)cc2)[C@@H](C)O)[C@@H](C)O)[C@@H](C)CC)CSCC(=O)NCCN(C(=O)CCC(=O)NCCOCCOCC(=O)NCCOCCOCC(=O)NCCCC[C@H](NC(=O)CCCCCCCCCCCCCCCCCCC(=O)O)C(=O)O)CCNC(=O)CSC[C@@H](C(=O)NCC(=O)NCC(=O)N2CCC[C@H]2C(=O)N[C@@H](CO)C(=O)N[C@@H](CO)C(=O)NCC(=O)N[C@@H](C)C(=O)N2CCC[C@H]2C(=O)N2CCC[C@H]2C(=O)N2CCC[C@H]2C(=O)N[C@@H](CO)C(N)=O)NC(=O)[C@H](CC(C)C)NC(=O)[C@H](CC(C)C)NC(=O)[C@H](Cc2ccc(O)cc2)NC(=O)[C@H](CCC(=O)O)NC1=O [TG40] | 33.9 pM | 3.1 pM | 92.9 pM | 2.1 pM | 12.5 pM | – | AUC(0-inf) ([6]; male, SD, iv, 1 mg/kg): 165 µg·h/mL; AUC(0-t) ([6]; male, SD, iv, 1 mg/kg): 164 µg·h/mL; MRT ([6]; male, SD, iv, 1 mg/kg): 22.1 h; Vd ([6]; male, SD, iv, 1 mg/kg): 0.134 L/kg; clearance ([6]; male, SD, iv, 1 mg/kg): 0.101 mL/min/kg; half-life ([6]; male, SD, iv, 1 mg/kg): 15 h; bioavailability ([6]; male, SD, sc): 50%; AUC(0-inf) ([6]; male, SD, sc, 3 mg/kg): 248 µg·h/mL; AUC(0-t) ([6]; male, SD, sc, 3 mg/kg): 247 µg·h/mL; CL/F ([6]; male, SD, sc, 3 mg/kg): 0.205 mL/min/kg; Cmax ([6]; male, SD, sc, 3 mg/kg): 4770 ng/mL; MRT ([6]; male, SD, sc, 3 mg/kg): 36.9 h; Tmax ([6]; male, SD, sc, 3 mg/kg): 24 h; half-life ([6]; male, SD, sc, 3 mg/kg): 13.1 h; AUC0-t /AUC0-inf ([6]; iv, 1 mg/kg): 0.997; Kel ([6]; iv, 1 mg/kg): 0.0462 h⁻¹; AUC0-t /AUC0-inf ([6]; sc, 3 mg/kg): 0.996; Vz/F ([6]; sc, 3 mg/kg): 0.232 L/kg
2 | CC[C@H](C)[C@@H]1NC(=O)[C@H](Cc2ccccc2)NC(=O)[C@@H](NC(=O)C(C)(C)NC(=O)[C@H](CCC(N)=O)NC(=O)[C@H](C)NC(=O)[C@H](CCCCNC(C)=O)NC(=O)[C@H](CCCCN)NC(=O)[C@H](CC(=O)O)NC(=O)[C@H](CCC(C)C)NC(=O)[C@](C)(CC(C)C)NC(=O)[C@@H](NC(=O)[C@H](CO)NC(=O)[C@H](Cc2ccc(O)cc2)NC(=O)[C@H](CC(=O)O)NC(=O)[C@H](CO)NC(=O)[C@@H](NC(=O)[C@H](Cc2ccccc2)NC(=O)[C@@H](NC(=O)CNC(=O)[C@H](CCC(N)=O)NC(=O)C(C)(C)NC(=O)[C@@H](N)Cc2ccc(O)cc2)[C@@H](C)O)[C@@H](C)O)[C@@H](C)CC)CSCC(=O)NCCN(C(=O)CCC(=O)NCCOCCOCC(=O)NCCOCCOCC(=O)NCCCC[C@H](NC(=O)CCCCCCCCCCCCCCCCCCC(=O)O)C(=O)O)CCNC(=O)CSC[C@@H](C(=O)NCC(=O)NCC(=O)N2CCC[C@H]2C(=O)N[C@@H](CO)C(=O)N[C@@H](CO)C(=O)NCC(=O)N[C@@H](C)C(=O)N2CCC[C@H]2C(=O)N2CCC[C@H]2C(=O)N2CCC[C@H]2C(=O)N[C@@H](CO)C(N)=O)NC(=O)[C@H](CC(C)C)NC(=O)[C@H](CC(C)C)NC(=O)[C@H](Cc2ccc(O)cc2)NC(=O)[C@H](CCC(=O)O)NC1=O [TG25] | 54 pM | – | 311 pM | 65.1 pM | 24.4 pM | 2.2 pM | –
3 | CC[C@H](C)[C@@H]1NC(=O)[C@H](Cc2ccccc2)NC(=O)[C@@H](NC(=O)C(C)(C)NC(=O)[C@H](CCC(N)=O)NC(=O)[C@H](C)NC(=O)[C@H](CCCCNC(C)=O)NC(=O)[C@H](CCCCN)NC(=O)[C@H](CC(=O)O)NC(=O)[C@H](CC(C)C)NC(=O)[C@](C)(CC(C)C)NC(=O)[C@@H](NC(=O)[C@H](CO)NC(=O)[C@H](Cc2ccc(O)cc2)NC(=O)[C@H](CC(=O)O)NC(=O)[C@H](CO)NC(=O)[C@@H](NC(=O)[C@H](Cc2ccccc2)NC(=O)[C@@H](NC(=O)CNC(=O)[C@H](CCC(N)=O)NC(=O)C(C)(C)NC(=O)[C@@H](N)Cc2ccc(O)cc2)[C@@H](C)O)[C@@H](C)O)[C@@H](C)CC)CSCC(=O)NCCN(C(=O)CCC(=O)NCCOCCOCC(=O)NCCOCCOCC(=O)NCCCC[C@H](NC(=O)CCCCCCCCCCCCCCCCCCC(=O)O)C(=O)O)CCNC(=O)CSC[C@@H](C(=O)NCC(=O)NCC(=O)N2CCC[C@H]2C(=O)N[C@@H](CO)C(=O)N[C@@H](CO)C(=O)NCC(=O)N[C@@H](C)C(=O)N2CCC[C@H]2C(=O)N2CCC[C@H]2C(=O)N2CCC[C@H]2C(=O)N[C@@H](CO)C(N)=O)NC(=O)[C@H](CC(C)C)NC(=O)[C@H](CC(C)C)NC(=O)[C@H](Cc2c[nH]c3ccccc23)NC(=O)[C@H](CCC(=O)O)NC1=O [TG28] | 60.2 pM | – | 482 pM | 83.7 pM | 30 pM | 2.2 pM | –
4 | CC[C@H](C)[C@@H]1NC(=O)[C@H](Cc2ccccc2)NC(=O)[C@@H](NC(=O)C(C)(C)NC(=O)[C@H](CCC(N)=O)NC(=O)[C@H](C)NC(=O)[C@H](CCCCNC(C)=O)NC(=O)[C@](C)(CCCCN)NC(=O)[C@H](CC(=O)O)NC(=O)[C@H](CC(C)C)NC(=O)[C@](C)(CC(C)C)NC(=O)[C@@H](NC(=O)[C@](C)(CO)NC(=O)[C@H](Cc2ccc(O)cc2)NC(=O)[C@H](CC(=O)O)NC(=O)[C@H](CO)NC(=O)[C@@H](NC(=O)[C@H](Cc2ccccc2F)NC(=O)[C@@H](NC(=O)CNC(=O)[C@H](CCC(N)=O)NC(=O)C(C)(C)NC(=O)[C@@H](N)Cc2ccc(O)cc2)[C@@H](C)O)[C@@H](C)O)[C@@H](C)CC)CSCC(=O)NCCN(C(=O)CCC(=O)NCCOCCOCC(=O)NCCOCCOCC(=O)NCCCC[C@H](NC(=O)CCCCCCCCCCCCCCCCCCC(=O)O)C(=O)O)CCNC(=O)CSC[C@@H](C(=O)NCC(=O)NCC(=O)N2CCC[C@H]2C(=O)N[C@@H](CO)C(=O)N[C@@H](CO)C(=O)NCC(=O)N[C@@H](C)C(=O)N2CCC[C@H]2C(=O)N2CCC[C@H]2C(=O)N2CCC[C@H]2C(=O)N[C@@H](CO)C(N)=O)NC(=O)[C@H](CC(C)C)NC(=O)[C@H](CC(C)C)NC(=O)[C@H](Cc2ccc(O)cc2)NC(=O)[C@H](CCC(=O)O)NC1=O [TG61] | 264 pM | 5.9 pM | 268 pM | 12.4 pM | 12.6 pM | – | –
